Consider five compounds from patent publication US5030638A, “Method of antiviral enhancement” (priority 1990, dated 1991).

Molecules are shown by their SMILES. In brackets after ≈: the same amount, converted by molar mass. Read-outs that look alike come from different tables or passages of the source.

The test system of one data set is glucosidase. The following applies: Fleet et al.; cited from earlier work.
The subject of another data set is HIV. The following applies: cited from earlier work; for HIV inhibitory / antiviral activity: literature.
For another data set, the target named is T1, yeast α-glucosidase (Saccharomyces cerevisiae, UniProt P53341).
T1 construct: purchased Sigma
Put plainly: Alpha-glucosidase inhibition assay, pH 7.4. Format: biochemical. The protocol:
(§1) Yeast alpha-glucosidase and almond beta-glucosidase activities were measured by a modification of the method of Evans, et al., Phytochemistry 22, 768-770 (1983). The modifications included 1) assay of activities at pH 7.4 in HEPES (N-2-hydroxyethylpiperazine-N'-2-ethanesulfonic acid) buffer, 2) measurement in 96 well microtiter plates and 3) inclusion of 10% DMSO in control and test samples.
(§2) The release of p-nitrophenol from the substrate p-nitrophenylglycoside was measured spectrophotometrically in the presence and absence of test compound. Each assay included a known inhibitor of the enzyme as a standard.
To 100 μl 50 mM HEPES buffer, pH 7.4, in a microtiter plate, add 20 μl test compound in DMSO (DMSO alone in control), 40 μl (0.013 units) yeast alpha-glucosidase (Sigma) in HEPES buffer and pre-incubate at room temperature for 15 minutes. Add 40 μl 1.25 mM p-nitrophenyl-alpha-D-glucopyranoside (Sigma) in HEPES buffer, as substrate, and monitor absorbance change at 405 nm in Biotek EIA Auto-reader. Absorption change was measured at 15 to 25 minutes (reaction was linear for at least 30 minutes). Each sample was tested in triplicate. […] Deoxynojirimycin was used as standard inhibitor.

Another data set has as its system HIV-1, strain HTLV-IIIB. The experiment in a line: Reduction of cytopathogenic effect (CPE) in HIV-1 infected CEM cells, MTT assay. Format: cell-based. The settings on record: for IC50 / inhibition at 1 µg/mL / inhibition at 3.2 µg/mL / inhibition at 10 µg/mL / inhibition at 32 µg/mL / inhibition at 500 µg/mL / inhibition at 100 µL/mL: Human immunodeficiency virus 1, IIIB, CCRF-CEM, 216 h; for IC50: read-out: ID50 (median inhibitory dose); for inhibition at 1 µg/mL: 1.0 μg/ml; for inhibition at 1 µg/mL / inhibition at 3.2 µg/mL / inhibition at 10 µg/mL / inhibition at 32 µg/mL / inhibition at 500 µg/mL / inhibition at 100 µL/mL: read-out: Percent Reduction of CPE; for inhibition at 3.2 µg/mL: 3.2 μg/ml; for inhibition at 10 µg/mL: 10 μg/ml; for inhibition at 32 µg/mL: 32 μg/ml; for inhibition of HIV-1: in vitro; for inhibition at 500 µg/mL: 500 μg/ml; for inhibition at 100 µL/mL: 100 μl/ml (so in the source). The protocol: These tests involved plating of susceptible human host cells which are syncytium-sensitive with and without virus in microculture plates, adding various concentrations of the test compound, incubating the plates for 9 days (during which time infected, non-drug treated control cells are largely or totally destroyed by the virus), and then determining the number of remaining viable cells using a colorimetric endpoint.
Tissue culture plates were incubated at 37° C. in a humidified, 5% CO2 atmosphere and observed microscopically for toxicity and/or cytopathogenic effect (CPE). At 2 and 6 days after infection, fresh dilutions of each test article were prepared from the frozen stock, and a 20 μl volume of each dilution (prepared as a 10× concentration was added to the appropriate wells of both infected and uninfected cells.
On the 9th day post-infection, the cells in each well were resuspended and a 100 μl sample of each cell suspension was removed for use in an MTT assay. A 20 μl volume of a 5 mg/ml solution of 3-(4,5-dimethylthiazol-2-yl)-2,5-diphenyltetrazolium bromide (MTT) was added to each 100 μl cell suspension, and the cells were incubated at 37° C. in 5% CO2 for 4 hours. […] A 100 μl volume of a solution of 10% sodium dodecyl sulfate in 0.01N hydrochloric acid wa added to each sample, and the samples were incubated overnight. The absorbance at 590 nm was determined for each sample using a Molecular Devices Vmax microplate reader. This assay detects drug-induced suppression of viral CPE, as well as drug cytotoxicity, by measuring the generation of MTT-formazan by surviving cells.
Assays were done in 96-well tissue culture plates. CEM cells were treated with polybrene at a concentration of 2 μg/ml, and an 80 μl volume of cells (1×10^4 cells) was dispensed into each well. A 100 μl volume of each test article dilution (prepared as a 2× concentration) was added to 5 wells of cells, and the cells were incubated at 37° C. for 1 hour. A frozen culture of HIV-1, strain HTLV-IIIB, was diluted in culture medium to a concentration of 5×10^4 TCID50 per ml, and a 20 μl volume (containing 10^3 TCID50 of virus) was added to 3 of the wells for each test article concentration. […] A 20 μl volume of normal culture medium was added to the remaining wells to allow evaluation of cytotoxicity. Each plate contained 6 wells of untreated, uninfected, cell control samples and 6 wells of untreated, infected, virus control samples. Dideoxycytidine (DDC) and dideoxyadenosine (DDA) were included as positive control compounds.

The target of data set [1] is almond β-glucosidase. Put plainly: Beta-glucosidase inhibition assay, pH 7.4. Format: biochemical. The following applies: for IC50: pH 7.4, read-out: Enzyme Inhibition-IC50, Almond β-Glucosidase pH 7.4; for Inhibition Index (first, head is drawing 3) / Inhibition Index (second, head is drawing 4): ratio of IC50 values; for Inhibition Index (first, head is drawing 3): numerically almond pH 4.8 / almond pH 7.4; for Inhibition Index (second, head is drawing 4): numerically yeast α pH 7.4 / almond β pH 7.4. The protocol: as §1, §2
To 100 μl 50 mM HEPES buffer, pH 7.4, in a microtiter plate, add 20 μl test compound in DMSO (DMSO alone in control), 40 μl (0.136 units) beta-glucosidase (Sigma) in HEPES buffer and pre-incubate at room temperature for 15 minutes. Add 40 μl 1.25 mM p-nitrophenyl-beta-D-glucopyranoside in HEPES buffer, as substrate and monitor absorbance change at 405 nm in a Biotek EIA Autoreader. Absorption change was measured at 15 to 25 minutes (reaction is linear for at least 30 minutes). Each sample was tested in triplicate. […] Castanospermine was used as standard inhibitor.

Data set [2] in a line: Assay for excretion of metabolites in urine of rats. Format: in vivo, rat.
The conditions of data set [3]: rat.
For another data set, the system named is visna virus. Put plainly: Plaque reduction assay, inhibition of visna virus in vitro. The class given is cell-based. The settings on record: Visna-maedi virus, read-out: Antiviral Activity (plaque reduction). The procedure:
(§3) Sheep choroid plexus(SCP) cells were obtained from American Type Culture Collection (ATCC) catalogue number CRL 1700 and were routinely passaged in vitro in Dulbecco's Modified Eagles (DME) medium supplemented with 20% fetal bovine serum (FBS). SCP cells were passaged once per week at a 1:2 or 1:3 split ratio. Visna was titrated by plaque assay in six-well plates. Virus pools were stored at -70° C.
(§4) SCP cells were cultured in 6-well plates to confluence. Wells were washed two times with serum free Minimal Essential Medium (MEM) to remove FBS. 0.2 ml of virus was added per well in MEM supplemented with 4 mM glutamine and gentamycin. After 1 hour adsorption, the virus was aspirated from each well. The appropriate concentration of each compound in 5 ml of Medium 199 (M-199) supplemented with 2% lamb serum, 4 mM glutamine, 0.5% agarose and gentamycin was added to each well. […] To terminate the test: cultures were fixed in 10% formalin, the agar removed, the monolayers stained with 1% crystal violet and plaques counted. Each compound concentration was run in triplicate. […] 0 is no toxicity observed while 4 is total lysing of the cell monolayer.
(In general: Plaques are areas of infected cells; plaque reduction assays count them against a control.)

The subject of data set [4] is Sheep choroid plexus (SCP) cells. The experiment in a line: Toxicity in control wells (without virus) of the plaque reduction assay. The class given is cell-based. Also on record: key: 0: no toxicity; 4: total cell lysates. The settings on record: graded 0 to 4. The protocol: as §3, §4
Toxicity graded on 0 to 4 scale 0 = no toxicity, 4 = total cell lysates

The target in data set [5] is almond β-glucosidase. Put plainly: Beta-glucosidase inhibition assay, pH 4.8. Format: biochemical. The settings on record: read-out: Enzyme Inhibition-IC50, Almond β-Glucosidase pH 4.8. The protocol: as §1, §2
To 100 μl 50 mM sodium citrate buffer, pH 4.8, in a microtiter plate, add 15 μl test compound in DMSO (DMSO alone in control), 20 μl (0.017 units) beta-glucosidase (Sigma) in citrate buffer and pre-incubate at room temperature for 15 minutes. Add 25 μl 2.50 mM p-nitrophenyl-beta-D-glucopyranside in citrate buffer, as substrate. […] Add 50 μl 0.4M NaOH. Read absorption change at 405 nm in a Biotek EIA Autoreader. Each sample was tested in triplicate. […] Castanospermine was used as standard inhibitor.

A short description of data set [6]: Solubility in aqueous solvent (antiviral test). Format: physicochemical.
The next data set deals with glucosidase I. The following applies: Schweden et al.; compared to N-methyl- and N-butyl-derivatives; cited from earlier work.
For data set [7] the following is noted: in vivo; cited from earlier work.
The nature of data set [8]: Preliminary pharmacokinetic tests in rats, total radioactivity in the blood. The settings on record: rat.
[9] abbreviates: HIV-1, CEM cells, reduction of CPE.

T1 sequence (P53341 whole entry): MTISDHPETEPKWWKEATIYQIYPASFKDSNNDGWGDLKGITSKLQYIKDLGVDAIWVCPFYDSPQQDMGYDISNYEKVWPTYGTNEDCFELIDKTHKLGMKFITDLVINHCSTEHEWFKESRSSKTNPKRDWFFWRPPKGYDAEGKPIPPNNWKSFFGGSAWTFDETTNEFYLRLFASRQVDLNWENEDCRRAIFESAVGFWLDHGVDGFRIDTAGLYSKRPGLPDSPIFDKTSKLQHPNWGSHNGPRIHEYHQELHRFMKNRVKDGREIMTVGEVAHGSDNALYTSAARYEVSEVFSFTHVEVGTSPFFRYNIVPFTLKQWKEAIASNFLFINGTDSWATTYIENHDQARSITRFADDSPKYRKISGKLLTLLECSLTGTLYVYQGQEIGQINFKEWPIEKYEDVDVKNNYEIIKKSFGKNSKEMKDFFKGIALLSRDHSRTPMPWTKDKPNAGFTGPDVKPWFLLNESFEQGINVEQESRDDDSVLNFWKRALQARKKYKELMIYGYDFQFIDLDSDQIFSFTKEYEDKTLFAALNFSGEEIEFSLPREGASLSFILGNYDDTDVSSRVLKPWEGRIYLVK

Consider `OC[C@H]1NC[C@@H](O)[C@@H]1O` (single isomer, unassigned) [D-enantiomer, 1,4-dideoxy-1,4-imino-arabinitol], for which the glucosidase inhibition result with glucosidase is “known glucosidase inhibitors”. The “HIV inhibitory / antiviral activity” value in the data set on HIV is reported as “very little effect on HIV replication”.

With `OC[C@H]1NC[C@@H](O)[C@@H]1O` (single isomer, unassigned) [L-enantiomer, 1,4-dideoxy-1,4-imino-arabinitol], the glucosidase inhibition result with glucosidase is “known glucosidase inhibitors”. Also, the “HIV inhibitory / antiviral activity” value in the data set with HIV is on record as “strong HIV inhibitory activity”.

As to `CCCCCCCCCN1C[C@H](O)[C@@H](O)[C@H](O)[C@H]1CO` [Example 3, 1,5(Nonylimino)-1,5-dideoxy-D-glucitol], the IC50 against yeast α-glucosidase amounted to 267 µM. Besides, the “ID50 compared to N-butyl-DNJ” value with HIV-1, strain HTLV-IIIB (HIV-1, CEM cells) is recorded as “advantageous reduction in ID50”. For the same compound, in the data set on HIV-1, strain HTLV-IIIB, the IC50 was 6.9 µg/mL (≈ 23.8 µM), the inhibition at 1 µg/mL was 0%, the inhibition at 3.2 µg/mL came out at 25.7% and the inhibition at 10 µg/mL turned out to be 62.5%. Also, in the data set on HIV-1, strain HTLV-IIIB, the inhibition at 32 µg/mL came to 28.9% and the “inhibition of HIV-1” value is “demonstrated to inhibit HIV-1”. Also, at almond β-glucosidase [1], the IC50 came to 18 µM; the “Inhibition Index (first, head is drawing 3)” value is reported as 10.8; the “Inhibition Index (second, head is drawing 4)” value turned out to be 14.8. Further, the metabolism entry in [2] is on record as “metabolized”. The t1/2 in vivo in data set [3] was 6.24 h. In addition, in the data set with visna virus, the inhibition at 10 µM worked out at 69% and the inhibition at 1000 µM came to 100%. The compound further showed a Toxicity in data set [4] (10 μM) of 0. Moreover, the Toxicity in data set [4] (1 mM) is reported as 4. Besides, the IC50 on almond β-glucosidase [5] was found to be 196 µM.

Turning to `CCCCCCN1C[C@H](O)[C@@H](O)[C@H](O)[C@H]1CO` [Example 2, 1,5-(Hexylimino)-1,5-dideoxy-D-glucitol], the IC50 on yeast α-glucosidase (pH 7.4, read-out: Enzyme Inhibition-IC50, Yeast α-Glucosidase pH 7.4) is 371 µM. The “ID50 compared to N-butyl-DNJ” value with HIV-1, strain HTLV-IIIB (HIV-1, CEM cells) is listed as “advantageous reduction in ID50”. In the data set with HIV-1, strain HTLV-IIIB, the inhibition at 1 µg/mL amounted to 0%, the inhibition at 3.2 µg/mL is 15.6%, the inhibition at 10 µg/mL was 65.6% and the inhibition at 32 µg/mL amounted to 68%. Also, in the data set with HIV-1, strain HTLV-IIIB, the inhibition at 500 µg/mL worked out at 147%, the inhibition at 100 µL/mL came out at 65.1% and the “inhibition of HIV-1” value is “demonstrated to inhibit HIV-1”. In addition, the IC50 in the data set with HIV-1, strain HTLV-IIIB (setting [9]) is 7.3 µg/mL (≈ 29.5 µM). In addition, on almond β-glucosidase [1], the IC50 is 4.8 µM; the “Inhibition Index (first, head is drawing 3)” value is 30; the “Inhibition Index (second, head is drawing 4)” value came out at 77.3. In addition, the Solubility entry in [6] is “Solubility problem; compound did not completely dissolve”. For the same compound, the “Ki, glucosidase I” value at glucosidase I is “greater Ki values than the N-methyl- and N-butyl-derivatives”. In addition, the inhibition at 1 µM with visna virus (1 μM) stood at 100%. Also, the inhibition at 10 µM with visna virus (10 μM) was 94%. This compound also gave a Toxicity in data set [4] (1 μM) of 2. Also, the Toxicity in [4] (10 μM) was 0. For the same compound, the IC50 on almond β-glucosidase [5] was determined as 144 µM.

With `CCCCN1C[C@H](O)[C@@H](O)[C@H](O)[C@H]1CO` [N-Butyl-DNJ, Nbutyl-deoxynojirimycin, reference compound], the IC50 at yeast α-glucosidase amounted to 536 µM. In the data set on HIV-1, strain HTLV-IIIB, the inhibition at 10 µg/mL came to 42.6%, the inhibition at 32 µg/mL was 49.8%, the inhibition at 500 µg/mL was 50.7% and the inhibition at 100 µL/mL came to 53.3%. The IC50 with HIV-1, strain HTLV-IIIB (setting [9]) amounted to 34 µg/mL (≈ 155 µM). Moreover, the gastrointestinal side effects entry in data set [7] was “gastrointestinal side effects seen”. Moreover, in data set [6], the Solubility result was “Solubility problem; compound did not completely dissolve”. For the same compound, the metabolism result in data set [2] is listed as “not metabolized”. In addition, the t1/2 in vivo in data set [8] was determined as 1.24 h. Besides, in the data set with visna virus (10 μM), the inhibition at 10 µM amounted to 57%. Moreover, the inhibition at 1000 µM with visna virus (1 mM) amounted to 100%. This compound also had a Toxicity in [4] (10 μM) of 0. For the same compound, the Toxicity in data set [4] (1 mM) is 0. The “reduction of infectious viral particles” value in the data set with HIV (Karpas et al., at nontoxic concentrations) is listed as “greater than five”. Besides, the “HIV inhibitory / antiviral activity” value with HIV was “significant antiviral activity”.
